Assay: solvent given as SMILES

`Oc1ccccc1-c1nc2ccccc2s1` gave an emission maximum (in CCO) of 373 nm, an emission maximum (in ClCCl) of 396 nm and an emission maximum (in O) of 463 nm.
Work on `CCCCCCCCCCCCOc1cc2c3c(ccc4c5c(N6CCOCC6)cc6c7c(ccc(c1c34)c75)C(=O)N(C1CCCCC1)C6=O)C(=O)N(C1CCCCC1)C2=O` yielded an emission maximum (in ClC(Cl)Cl) of 697 nm.
`CCCC1(CCC)c2cc(-c3ccc4c(c3)C(CCC)(CCC)c3cc(C(C)(C)CC)ccc3-4)ccc2-c2ccc(-c3ccc4c(c3)C(CCC)(CCC)c3cc(C(C)(C)CC)ccc3-4)cc21` showed an emission maximum (in C1CCCCC1) of 400 nm.
With `Cc1ccc(-c2cc(/C=C/c3ccc(N(c4ccccc4)c4ccccc4)cc3)c(-c3ccc(C)cc3)cc2/C=C/c2ccc(N(c3ccccc3)c3ccccc3)cc2)cc1` the emission maximum (in ClCCl) was 492 nm.
For `c1ccc2c(-c3c4ccccc4c(-c4ccc(-c5ccc(-n6c7ccccc7c7ccccc76)cc5)cc4)c4ccccc34)cccc2c1`, the emission maximum (in ClCCl) was 420 nm.
With `CC(C)(C)OC(=O)NC(C(=O)OCc1ccc2c3cccc4cccc(c5cccc1c52)c43)c1c[nH]c2ccccc12` (stereo not given) the emission maximum (in CCO) was 447 nm.
`Cc1ccc(-c2ccc(/C=C/c3ccc(Cl)cc3)cn2)nc1` showed an emission maximum (in CC#N) of 392 nm.
For `F[B-]1(F)n2cccc2C(c2c3ccccc3c(-c3ccccc3)c3ccccc23)=C2C=CC=[N+]21`, the emission maximum (in CC#N) was 524 nm, the emission maximum (in CCCCCC) was 564 nm and the emission maximum (in CCO) was 522 nm. It also gave an emission maximum (in CN(C)C=O) of 526 nm, an emission maximum (in Cc1ccccc1) of 529 nm and an emission maximum (in ClCCl) of 526 nm.
`O=P1(c2ccccc2)C(c2ccccc2)=Cc2ccccc21` (stereo not given) showed an emission maximum (in C1CCOC1) of 417 nm and an emission maximum (in ClCCl) of 423 nm.
In the case of `CCn1c2ccc(/C=C/c3ccc4c(c3)c3cc(-c5nc6ccccc6s5)ccc3n4CC)cc2c2cc(-c3nc4ccccc4s3)ccc21`, the emission maximum (in C1CCOC1) was 408 nm, the emission maximum (in CC#N) was 491 nm and the emission maximum (in CCOC(C)=O) was 412 nm. It also gave an emission maximum (in CN(C)C=O) of 449 nm and an emission maximum (in ClCCl) of 442 nm.
For `O=C(O)CCCCCn1c2ccccc2c(=O)c2cc(S(=O)(=O)O)ccc21`, the emission maximum (in O) was 428 nm.
`COCCC1=Cc2nc1ccc1[nH]c(cc1CCOC)c1nc(c(OC(C)=O)cc3[nH]c2cc3CCOC)C(CCOC)=C1` gave an emission maximum (in Cc1ccccc1) of 652 nm.
For `O=P1(c2ccccc2)c2cccc3c4c5ccccc5c5ccccc5c4c4ccc1n4c23` (stereo not given), the emission maximum (in ClCCl) was 490 nm.
`COc1ccccc1-c1nc(-c2ccccc2)c(-c2ccccc2)[nH]1` gave an emission maximum (in CO) of 375 nm.
In the case of `COc1ccc2cc(C(C)C(=O)Oc3ccc(-c4c5nc(c(-c6ccc(C)cc6)c6ccc([nH]6)c(-c6ccc(C)cc6)c6nc(c(-c7ccc(C)cc7)c7ccc4[nH]7)C=C6)C=C5)cc3)ccc2c1` (stereo not given), the emission maximum (in ClCCl) was 654 nm.
For `Cc1ccc(C2=C3C=C(I)C=[N+]3[B-](F)(F)n3cc(I)cc32)cc1`, the emission maximum (in C1CCCCC1) was 567.5 nm, the emission maximum (in CC#N) was 573 nm and the emission maximum (in CCO) was 573 nm. It also gave an emission maximum (in CCOC(C)=O) of 569.5 nm, an emission maximum (in CO) of 572 nm and an emission maximum (in OCC(F)(F)F) of 567.5 nm.
For `O=C1CC(=O)Nc2cc(Cl)ccc2N1`, the emission maximum (in CS(C)=O) was 336 nm.
`c1ccc2c(c1)ccc1ccccc12` showed an emission maximum (in Cc1ccccc1) of 350 nm.
`c1ccc2c(c1)c1ccccc1n2-c1ccc(-c2ccn3nc(-c4ccc(-n5c6ccccc6c6ccccc65)cc4)nc3c2)cc1` gave an emission maximum (in C1CCOC1) of 413 nm.
`Cc1cc(C)c(B(c2c(C)cc(C)cc2C)N2c3ccccc3C(c3ccccc3)(c3ccccc3)c3ccccc32)c(C)c1` gave an emission maximum (in C1CCCCC1) of 522 nm, an emission maximum (in Cc1ccccc1) of 537 nm and an emission maximum (in ClCCl) of 558 nm.
For `CN(C)c1ccc(-c2c(/C=C3/C=Cc4ccccc4N3Cc3ccccc3)c(=O)c2=O)cc1`, the emission maximum (in C1CCCCC1) was 427 nm, the emission maximum (in Cc1ccccc1) was 435 nm and the emission maximum (in ClCCl) was 586 nm.
In the case of `CCN(CC)c1ccc2cc(/C=C/C(=O)/C=C(O)/C=C/c3cc4ccc(N(CC)CC)cc4oc3=O)c(=O)oc2c1`, the emission maximum (in C1CCOC1) was 568 nm, the emission maximum (in C1COCCO1) was 561 nm and the emission maximum (in CC#N) was 609 nm. For the same compound, the emission maximum (in CC(C)=O) was 598 nm, the emission maximum (in CCOC(C)=O) was 566 nm and the emission maximum (in CN(C)C=O) was 611 nm. It also gave an emission maximum (in CS(C)=O) of 621 nm, an emission maximum (in Cc1ccccc1) of 542 nm and an emission maximum (in ClC(Cl)Cl) of 581 nm. It also gave an emission maximum (in ClCCl) of 593 nm.
For `CC1=CC(C)=[N+]2C1=C(c1ccc(C)cc1)c1c(C)cc(/C=C/c3ccc4ccc5cccc6ccc3c4c56)n1[B-]2(F)F`, the emission maximum (in CC1CCCO1) was 618 nm.
With `COc1ccc(C2=C3C(C)=CC(C)=[N+]3[B-](F)(F)n3c(/C=C/c4ccc(N(C)C)cc4)cc(C)c32)cc1` the emission maximum (in C1CCCCC1) was 612 nm, the emission maximum (in C1CCOC1) was 664 nm and the emission maximum (in C1COCCO1) was 648 nm. It also gave an emission maximum (in CC1CCCCC1) of 612 nm, an emission maximum (in CC#N) of 717 nm and an emission maximum (in CC(C)=O) of 695 nm. The emission maximum (in CC(C)OC(C)C) was 629 nm, the emission maximum (in CCC#N) was 710 nm and the emission maximum (in CCCC#N) was 695 nm. It also gave an emission maximum (in CCCCO) of 678 nm, an emission maximum (in CCCCOCCCC) of 627 nm and an emission maximum (in CCOC(C)=O) of 665 nm. For the same compound, the emission maximum (in CCOCC) was 641 nm, the emission maximum (in CN(C)C=O) was 718 nm and the emission maximum (in CO) was 696 nm. For the same compound, the emission maximum (in CS(C)=O) was 737 nm, the emission maximum (in Cc1ccccc1) was 640 nm and the emission maximum (in ClC(Cl)Cl) was 656 nm.
With `Cc1ccc(-c2nc3c([nH]2)C2=CC(=O)S[C@]2(C)[C@@]2(C)SC(=O)C=C32)cc1` the emission maximum (in CC#N) was 520 nm.
`CC1(C)CC(/C=C/c2ccc(-n3cccn3)cc2)=CC(=C(C#N)C#N)C1` showed an emission maximum (in C1CCOC1) of 529 nm, an emission maximum (in CC#N) of 538 nm and an emission maximum (in CCO) of 532 nm. For the same compound, the emission maximum (in CCOC(C)=O) was 526 nm, the emission maximum (in ClCCl) was 528 nm and the emission maximum (in c1ccccc1) was 511 nm.
For `Cc1ccc(-c2c3nc(c(-c4ccc(C)cc4)c4ccc([nH]4)c(-c4ccc(OC(=O)C(C)c5ccc(CC(C)C)cc5)cc4)c4nc(c(-c5ccc(C)cc5)c5ccc2[nH]5)C=C4)C=C3)cc1` (stereo not given), the emission maximum (in ClCCl) was 652 nm.
`C(=C\c1ncccn1)/c1ccc(-c2ccc(N(c3ccccc3)c3ccccc3)cc2)cc1` showed an emission maximum (in ClCCl) of 530 nm.
Work on `COc1cn2cc(-c3ccc(C#N)cc3)[n-][n+]2c1` yielded an emission maximum (in ClCCl) of 505 nm.
For `CCN(CC)c1ccc2cc(-c3nc4cc(C(=O)Nc5cccc(OC)c5)ccc4o3)c(=O)oc2c1`, the emission maximum (in ClCCl) was 494 nm.
In the case of `N#Cc1nn(-c2ccccc2C(F)(F)F)nc1N1CCCC1`, the emission maximum (in CC#N) was 433 nm.
In the case of `CCCCn1c(-c2ccc(-c3nnc(-c4ccc(-c5nc6c7ccccc7c7ccccc7c6n5CCCC)cc4)o3)cc2)nc2c3ccccc3c3ccccc3c21`, the emission maximum (in ClCCl) was 451 nm.
In the case of `CCCCCCCCCCCCC(CCCCCCCCCC)Cn1c2cc(/C=C/c3nc4ccccc4s3)c3cccc4c5cccc6c(/C=C/c7nc8ccccc8s7)cc1c(c65)c2c34` (stereo not given), the emission maximum (in C1CCCCC1) was 570 nm, the emission maximum (in CC#N) was 581 nm and the emission maximum (in Cc1ccccc1) was 582 nm. It also gave an emission maximum (in ClCCl) of 585 nm.
`CCCC1(CCC)c2cc(-c3ccccc3)ccc2-c2ccc(-c3ccc4c(c3)C(CCC)(CCC)c3cc(-c5ccccc5)ccc3-4)cc21` gave an emission maximum (in C1CCCCC1) of 387 nm.
With `COc1ccc(/C=C/c2ccccc2)cc1OC` the emission maximum (in C1CCCCC1) was 372 nm, the emission maximum (in CC#N) was 385 nm and the emission maximum (in CC(C)O) was 374 nm. For the same compound, the emission maximum (in CCCCOCCCC) was 375 nm, the emission maximum (in CCOC(C)=O) was 382 nm and the emission maximum (in CCOCC) was 373 nm.
With `F[B-]1(F)n2c(c(-c3ccccc3)c(-c3ccccc3)c2-c2ccccc2)C=C2C(c3ccccc3)=C(c3ccccc3)C(c3ccccc3)=[N+]21` the emission maximum (in C1CCOC1) was 608 nm.
Work on `CC1=C(c2ccccc2)Oc2cc3nc4ccccc4nc3c3cccc1c23` yielded an emission maximum (in ClCCl) of 554 nm.
`O=C1c2cc(F)ccc2-c2cnccc21` showed an emission maximum (in CC#N) of 540.43 nm and an emission maximum (in CCCCCC) of 486.26 nm.
Work on `COc1ccc(-c2ccc3c(c2)nnn3C[C@H](N)C(=O)O)cc1` yielded an emission maximum (in CO) of 418 nm.
With `CN(C)c1ccc(C(=O)c2ccccc2)cc1` the emission maximum (in C1CCCCC1) was 462 nm, the emission maximum (in CC#N) was 602 nm and the emission maximum (in CO) was 480 nm. For the same compound, the emission maximum (in CS(C)=O) was 609 nm and the emission maximum (in c1ccccc1) was 497 nm.
Work on `COc1cccc2cc(C)c3c4ccccc4[nH]c3c12` yielded an emission maximum (in ClCCl) of 365 nm.
Work on `c1ccc(-c2nc(-c3ccc(-n4c5ccc(-n6c7ccccc7c7ccccc76)cc5c5ccc6c(c7ccccc7n6-c6ccccc6)c54)cc3)c3sc4ccccc4c3n2)cc1` yielded an emission maximum (in Cc1ccccc1) of 460.56 nm.
With `COc1ccc(C2=CC(c3ccc4cc(N(C)C)ccc4c3)=[O+][B-](F)(F)O2)cc1` the emission maximum (in C1CCOC1) was 618 nm, the emission maximum (in CC#N) was 681 nm and the emission maximum (in CC(C)=O) was 660 nm. The emission maximum (in CS(C)=O) was 698 nm, the emission maximum (in Cc1ccccc1) was 555 nm and the emission maximum (in ClC(Cl)Cl) was 596 nm. For the same compound, the emission maximum (in ClCCl) was 631 nm.
With `CN(C)c1ccc(C2=Cc3cc(Cl)nc[n+]3[B-](F)(F)O2)cc1` the emission maximum (in C1CCOC1) was 532 nm, the emission maximum (in CC#N) was 565 nm and the emission maximum (in CCCCCC) was 456 nm. For the same compound, the emission maximum (in Cc1ccccc1) was 494 nm, the emission maximum (in ClC(Cl)Cl) was 512 nm and the emission maximum (in ClCCl) was 529 nm.
Compound `Cc1csc2[n+]1[B-](F)(F)OC(c1ccc(N(C)C)cc1)=N2` has an emission maximum (in C1CCOC1) of 453 nm, an emission maximum (in CC#N) of 466 nm and an emission maximum (in Cc1ccccc1) of 437 nm. The emission maximum (in ClCCl) was 453 nm.
Work on `CCCCn1c2ccc(-c3ccc4c(c3)c3c5c(ccc6ccccc65)ccc3n4CCCC)cc2c2c3c(ccc4ccccc43)ccc21` yielded an emission maximum (in ClCCl) of 437 nm.
`C(=C\c1cc(-c2ccccc2)c(/C=C/c2ccc(N(c3ccccc3)c3ccccc3)cc2)cc1-c1ccccc1)/c1ccc(N(c2ccccc2)c2ccccc2)cc1` showed an emission maximum (in ClCCl) of 495 nm.
In the case of `COc1cc(Br)cc2cc(-c3cc4cc(Br)cc(OC)c4oc3=O)oc12`, the emission maximum (in CC#N) was 381 nm, the emission maximum (in CCOC(C)=O) was 434 nm and the emission maximum (in CS(C)=O) was 387 nm. For the same compound, the emission maximum (in Cc1ccccc1) was 430 nm and the emission maximum (in O) was 497 nm.
For `CCCc1ccc(C#Cc2cc(C#Cc3ccc(N(C)C)cc3)c3ccc4c(C#Cc5ccc(N(C)C)cc5)cc(C#Cc5ccc(N(C)C)cc5)c5ccc2c3c54)cc1`, the emission maximum (in ClCCl) was 603 nm.
For `CC1=CC(c2ccc(N(C)C)cc2)=[N+]2C1=Nc1c(C)cc(-c3ccc(N(C)C)cc3)n1[B-]2(F)F`, the emission maximum (in C1CCOC1) was 791 nm, the emission maximum (in CS(C)=O) was 822 nm and the emission maximum (in Cc1ccccc1) was 779 nm.
In the case of `COc1ccc(-c2nc(C(C)=O)c(C)o2)cc1`, the emission maximum (in CC#N) was 347 nm, the emission maximum (in CCO) was 354 nm and the emission maximum (in CCOC(C)=O) was 347 nm. It also gave an emission maximum (in CCOCC) of 345 nm and an emission maximum (in ClCCl) of 351 nm.
